Reference: ChEMBL document CHEMBL4507266, “Data for DCP probe BAY-784” (2021)

How the values were obtained:
[1] = target: Bone morphogenetic protein receptor type-1A (Homo sapiens) (UniProt P36894); conditions: Compound concentration 1000.0 nM
[2] = system: Serine/threonine-protein kinase B-raf (Homo sapiens), P15056 [V600E]; conditions: Compound concentration 1000.0 nM
[3] = target: Mitotic checkpoint serine/threonine-protein kinase BUB1 (Homo sapiens) (UniProt O43683); conditions: Compound concentration 1000.0 nM
[4] = target: Serine/threonine-protein kinase Chk2 (Homo sapiens) (UniProt O96017); conditions: Compound concentration 1000.0 nM
[5] = target: Casein kinase I isoform gamma-3 (Homo sapiens) (UniProt Q9Y6M4); conditions: Compound concentration 1000.0 nM
[6] = target: Death-associated protein kinase 1 (Homo sapiens) (UniProt P53355); conditions: Compound concentration 1000.0 nM
[7] = system: Epidermal growth factor receptor (Homo sapiens), P00533 [UNDEFINED MUTATION]; conditions: Compound concentration 1000.0 nM
[8] = system: Epidermal growth factor receptor (Homo sapiens), P00533 [L858R]; conditions: Compound concentration 1000.0 nM
[9] = target: Ephrin type-A receptor 4 (Homo sapiens) (UniProt P54764); conditions: Compound concentration 1000.0 nM
[10] = system: Receptor-type tyrosine-protein kinase FLT3 (Homo sapiens), P36888 [K663Q]; conditions: Compound concentration 1000.0 nM
[11] = target: Tyrosine-protein kinase ITK/TSK (Homo sapiens) (UniProt Q08881); conditions: Compound concentration 1000.0 nM
[12] = target: Tyrosine-protein kinase JAK2 (Homo sapiens) (UniProt O60674); conditions: Compound concentration 1000.0 nM
[13] = target: Tyrosine-protein kinase JAK3 (Homo sapiens) (UniProt P52333); conditions: Compound concentration 1000.0 nM
[14] = system: Mast/stem cell growth factor receptor Kit (Homo sapiens), P10721 [A829P]; conditions: Compound concentration 1000.0 nM
[15] = system: Mast/stem cell growth factor receptor Kit (Homo sapiens), P10721 [V559D]; conditions: Compound concentration 1000.0 nM
[16] = target: LIM domain kinase 1 (Homo sapiens) (UniProt P53667); conditions: Compound concentration 1000.0 nM
[17] = target: Serine/threonine-protein kinase MRCK beta (Homo sapiens) (UniProt Q9Y5S2); conditions: Compound concentration 1000.0 nM
[18] = target: Macrophage-stimulating protein receptor (Homo sapiens) (UniProt Q04912); conditions: Compound concentration 1000.0 nM
[19] = target: Muscle, skeletal receptor tyrosine-protein kinase (Homo sapiens) (UniProt O15146); conditions: Compound concentration 1000.0 nM
[20] = target: Serine/threonine-protein kinase Nek10 (Homo sapiens) (UniProt Q6ZWH5); conditions: Compound concentration 1000.0 nM
[21] = target: Serine/threonine-protein kinase Nek6 (Homo sapiens) (UniProt Q9HC98); conditions: Compound concentration 1000.0 nM
[22] = target: 3-phosphoinositide-dependent protein kinase 1 (Homo sapiens) (UniProt O15530); conditions: Compound concentration 1000.0 nM
[23] = target: Cyclin-dependent kinase 2 homolog (Plasmodium falciparum (isolate 3D7)) (UniProt P61075); conditions: Compound concentration 1000.0 nM
[24] = target: Cyclin-dependent kinase 15 (Homo sapiens) (UniProt Q96Q40); conditions: Compound concentration 1000.0 nM
[25] = target: Serine/threonine-protein kinase pim-1 (Homo sapiens) (UniProt P11309); conditions: Compound concentration 1000.0 nM
[26] = target: Phosphatidylinositol 4-phosphate 5-kinase type-1 alpha (Homo sapiens) (UniProt Q99755); conditions: Compound concentration 1000.0 nM
[27] = target: Receptor-interacting serine/threonine-protein kinase 1 (Homo sapiens) (UniProt Q13546); conditions: Compound concentration 1000.0 nM
[28] = target: Rho-associated protein kinase 2 (Homo sapiens) (UniProt O75116); conditions: Compound concentration 1000.0 nM
[29] = target: SNF-related serine/threonine-protein kinase (Homo sapiens) (UniProt Q9NRH2); conditions: Compound concentration 1000.0 nM
[30] = target: Serine/threonine-protein kinase 16 (Homo sapiens) (UniProt O75716); conditions: Compound concentration 1000.0 nM
[31] = target: Serine/threonine-protein kinase ULK1 (Homo sapiens) (UniProt O75385); conditions: Compound concentration 1000.0 nM
[32] = target: 5-hydroxytryptamine receptor 1B (Homo sapiens) (UniProt P28222); conditions: Compound concentration 10.0 uM
[33] = target: T1, 5-hydroxytryptamine receptor 2C (Homo sapiens) (UniProt P28335); conditions: Compound concentration 10.0 uM
T1 sequence (whole entry): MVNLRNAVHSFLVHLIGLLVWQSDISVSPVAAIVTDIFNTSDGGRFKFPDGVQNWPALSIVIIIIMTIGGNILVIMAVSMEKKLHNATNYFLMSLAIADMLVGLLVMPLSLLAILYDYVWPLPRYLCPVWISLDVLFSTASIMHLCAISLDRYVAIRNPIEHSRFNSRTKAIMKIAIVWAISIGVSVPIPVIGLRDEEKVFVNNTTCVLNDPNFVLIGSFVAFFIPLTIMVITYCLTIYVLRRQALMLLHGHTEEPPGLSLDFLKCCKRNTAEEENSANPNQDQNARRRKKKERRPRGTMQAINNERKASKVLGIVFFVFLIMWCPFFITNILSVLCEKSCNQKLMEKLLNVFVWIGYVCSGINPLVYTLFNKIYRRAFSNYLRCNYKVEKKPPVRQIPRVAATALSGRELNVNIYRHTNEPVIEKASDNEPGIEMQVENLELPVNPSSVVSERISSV

[34] = target: Sodium-dependent noradrenaline transporter (Homo sapiens) (UniProt P23975); conditions: Compound concentration 10.0 uM
Chain of Sodium-dependent noradrenaline transporter (Homo sapiens) (P23975 whole entry): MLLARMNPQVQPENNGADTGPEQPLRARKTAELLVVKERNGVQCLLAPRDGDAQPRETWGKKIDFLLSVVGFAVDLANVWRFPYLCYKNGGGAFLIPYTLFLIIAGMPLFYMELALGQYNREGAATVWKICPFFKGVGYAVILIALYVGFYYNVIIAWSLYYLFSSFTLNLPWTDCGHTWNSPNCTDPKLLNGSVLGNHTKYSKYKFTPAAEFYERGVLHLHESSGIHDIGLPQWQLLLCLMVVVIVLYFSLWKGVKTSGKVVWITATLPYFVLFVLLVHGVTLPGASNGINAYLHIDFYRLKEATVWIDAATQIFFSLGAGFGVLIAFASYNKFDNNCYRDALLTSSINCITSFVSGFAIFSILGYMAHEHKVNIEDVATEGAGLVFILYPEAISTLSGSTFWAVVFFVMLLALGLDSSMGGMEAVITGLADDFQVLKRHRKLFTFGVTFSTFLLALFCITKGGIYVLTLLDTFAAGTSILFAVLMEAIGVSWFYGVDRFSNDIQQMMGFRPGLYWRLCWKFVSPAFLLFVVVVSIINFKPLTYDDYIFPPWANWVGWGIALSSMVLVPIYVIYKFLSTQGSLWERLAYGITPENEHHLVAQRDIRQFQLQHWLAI

Chain of Mitotic checkpoint serine/threonine-protein kinase BUB1 (Homo sapiens) (O43683 whole entry, looked up): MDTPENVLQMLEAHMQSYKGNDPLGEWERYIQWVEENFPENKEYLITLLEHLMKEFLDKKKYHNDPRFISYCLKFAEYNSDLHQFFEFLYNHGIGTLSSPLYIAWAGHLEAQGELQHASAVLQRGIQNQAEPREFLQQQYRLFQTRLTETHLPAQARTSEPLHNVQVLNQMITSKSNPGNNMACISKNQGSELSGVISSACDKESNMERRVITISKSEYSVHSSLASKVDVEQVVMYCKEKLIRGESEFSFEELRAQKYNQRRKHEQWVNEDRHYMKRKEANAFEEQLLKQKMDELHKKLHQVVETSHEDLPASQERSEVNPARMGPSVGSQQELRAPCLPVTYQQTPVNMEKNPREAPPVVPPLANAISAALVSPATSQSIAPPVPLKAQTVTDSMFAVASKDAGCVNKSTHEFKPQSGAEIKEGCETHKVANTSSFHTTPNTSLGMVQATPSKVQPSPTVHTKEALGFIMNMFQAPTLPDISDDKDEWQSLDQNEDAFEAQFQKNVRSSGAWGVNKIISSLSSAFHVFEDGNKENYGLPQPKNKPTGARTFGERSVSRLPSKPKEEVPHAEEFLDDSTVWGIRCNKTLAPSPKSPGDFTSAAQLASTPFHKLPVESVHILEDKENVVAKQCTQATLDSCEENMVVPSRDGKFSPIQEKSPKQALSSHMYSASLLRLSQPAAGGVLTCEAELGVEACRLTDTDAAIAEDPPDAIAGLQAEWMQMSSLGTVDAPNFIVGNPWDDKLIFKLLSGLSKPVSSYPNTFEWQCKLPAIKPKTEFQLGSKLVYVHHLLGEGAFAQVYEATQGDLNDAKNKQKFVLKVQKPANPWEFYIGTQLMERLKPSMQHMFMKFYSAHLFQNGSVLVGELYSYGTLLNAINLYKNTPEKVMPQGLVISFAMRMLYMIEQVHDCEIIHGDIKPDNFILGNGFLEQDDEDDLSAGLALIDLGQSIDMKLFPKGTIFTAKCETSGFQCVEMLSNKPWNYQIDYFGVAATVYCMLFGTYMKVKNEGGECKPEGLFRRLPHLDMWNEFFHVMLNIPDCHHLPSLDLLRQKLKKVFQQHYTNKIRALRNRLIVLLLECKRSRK
Chain of Serine/threonine-protein kinase ULK1 (Homo sapiens) (O75385 whole entry): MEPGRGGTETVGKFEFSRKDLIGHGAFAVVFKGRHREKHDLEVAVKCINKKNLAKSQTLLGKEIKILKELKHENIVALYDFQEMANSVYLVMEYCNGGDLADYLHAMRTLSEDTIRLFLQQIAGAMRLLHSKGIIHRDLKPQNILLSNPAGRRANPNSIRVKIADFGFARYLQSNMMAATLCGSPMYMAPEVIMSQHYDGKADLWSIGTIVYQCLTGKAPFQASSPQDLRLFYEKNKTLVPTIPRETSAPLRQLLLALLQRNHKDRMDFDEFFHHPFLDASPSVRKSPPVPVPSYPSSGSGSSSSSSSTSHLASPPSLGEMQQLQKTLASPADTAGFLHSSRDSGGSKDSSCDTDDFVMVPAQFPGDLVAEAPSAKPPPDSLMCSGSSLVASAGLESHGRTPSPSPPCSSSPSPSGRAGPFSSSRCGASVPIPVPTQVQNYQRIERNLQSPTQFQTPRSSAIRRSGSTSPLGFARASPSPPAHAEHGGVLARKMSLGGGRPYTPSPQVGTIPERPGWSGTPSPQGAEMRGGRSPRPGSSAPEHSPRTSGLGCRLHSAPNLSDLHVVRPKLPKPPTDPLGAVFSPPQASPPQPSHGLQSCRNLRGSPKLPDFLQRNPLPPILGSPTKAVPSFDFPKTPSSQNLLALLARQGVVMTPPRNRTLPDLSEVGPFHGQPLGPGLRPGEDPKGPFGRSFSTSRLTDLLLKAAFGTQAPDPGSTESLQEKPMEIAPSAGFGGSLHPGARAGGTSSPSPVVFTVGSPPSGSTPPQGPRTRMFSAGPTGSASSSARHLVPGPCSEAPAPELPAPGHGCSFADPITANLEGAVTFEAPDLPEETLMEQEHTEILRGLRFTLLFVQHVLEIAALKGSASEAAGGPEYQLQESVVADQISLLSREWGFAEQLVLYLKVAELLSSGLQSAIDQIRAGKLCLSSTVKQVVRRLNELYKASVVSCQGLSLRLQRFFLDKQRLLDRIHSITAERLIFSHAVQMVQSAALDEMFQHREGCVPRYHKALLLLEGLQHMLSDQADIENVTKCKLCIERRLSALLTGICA
Chain of Receptor-interacting serine/threonine-protein kinase 1 (Homo sapiens) (Q13546 whole entry): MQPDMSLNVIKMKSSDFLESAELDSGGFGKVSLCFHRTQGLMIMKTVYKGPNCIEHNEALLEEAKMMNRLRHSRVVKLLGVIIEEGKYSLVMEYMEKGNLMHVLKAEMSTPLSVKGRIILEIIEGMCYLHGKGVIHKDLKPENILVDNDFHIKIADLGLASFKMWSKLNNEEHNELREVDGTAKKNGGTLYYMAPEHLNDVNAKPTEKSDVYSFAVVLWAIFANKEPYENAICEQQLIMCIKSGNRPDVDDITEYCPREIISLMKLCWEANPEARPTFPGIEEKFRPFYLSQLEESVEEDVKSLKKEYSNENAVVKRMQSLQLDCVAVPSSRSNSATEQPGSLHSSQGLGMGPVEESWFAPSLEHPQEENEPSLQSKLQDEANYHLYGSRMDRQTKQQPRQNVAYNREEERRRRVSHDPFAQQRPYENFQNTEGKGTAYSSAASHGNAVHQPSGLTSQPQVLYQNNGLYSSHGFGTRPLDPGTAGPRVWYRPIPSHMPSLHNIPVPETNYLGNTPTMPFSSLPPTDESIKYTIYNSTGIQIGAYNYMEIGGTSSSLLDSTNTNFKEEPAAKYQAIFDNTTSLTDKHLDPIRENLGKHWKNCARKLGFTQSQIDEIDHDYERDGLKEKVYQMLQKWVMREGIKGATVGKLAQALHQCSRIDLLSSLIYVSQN
Chain of Cyclin-dependent kinase 15 (Homo sapiens) (Q96Q40 whole entry): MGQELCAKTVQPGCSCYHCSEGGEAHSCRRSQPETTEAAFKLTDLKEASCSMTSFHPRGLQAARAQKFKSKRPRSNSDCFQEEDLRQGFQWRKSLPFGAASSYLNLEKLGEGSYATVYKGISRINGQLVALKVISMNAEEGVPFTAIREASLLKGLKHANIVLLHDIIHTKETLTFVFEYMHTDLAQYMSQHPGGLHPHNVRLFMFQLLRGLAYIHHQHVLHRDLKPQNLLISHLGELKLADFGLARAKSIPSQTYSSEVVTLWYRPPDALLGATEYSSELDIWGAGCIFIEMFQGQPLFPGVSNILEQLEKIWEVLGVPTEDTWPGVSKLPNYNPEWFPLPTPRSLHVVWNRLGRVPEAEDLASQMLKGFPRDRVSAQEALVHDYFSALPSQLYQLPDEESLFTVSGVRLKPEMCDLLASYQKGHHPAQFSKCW
Chain of Casein kinase I isoform gamma-3 (Homo sapiens) (Q9Y6M4 whole entry, looked up, canonical isoform): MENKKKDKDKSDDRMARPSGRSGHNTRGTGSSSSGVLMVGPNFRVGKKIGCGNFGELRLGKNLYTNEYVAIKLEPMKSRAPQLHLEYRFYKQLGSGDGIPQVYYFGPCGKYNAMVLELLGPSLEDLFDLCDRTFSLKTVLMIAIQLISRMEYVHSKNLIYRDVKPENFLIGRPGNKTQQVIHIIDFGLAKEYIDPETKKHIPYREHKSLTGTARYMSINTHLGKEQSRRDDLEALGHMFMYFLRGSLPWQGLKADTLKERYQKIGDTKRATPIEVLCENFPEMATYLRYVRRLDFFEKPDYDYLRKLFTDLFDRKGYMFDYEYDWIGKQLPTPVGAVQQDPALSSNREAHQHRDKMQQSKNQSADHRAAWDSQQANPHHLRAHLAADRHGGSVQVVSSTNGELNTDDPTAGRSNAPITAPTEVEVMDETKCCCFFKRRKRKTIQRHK
Chain of LIM domain kinase 1 (Homo sapiens) (P53667 whole entry, looked up, the tested form may be a part): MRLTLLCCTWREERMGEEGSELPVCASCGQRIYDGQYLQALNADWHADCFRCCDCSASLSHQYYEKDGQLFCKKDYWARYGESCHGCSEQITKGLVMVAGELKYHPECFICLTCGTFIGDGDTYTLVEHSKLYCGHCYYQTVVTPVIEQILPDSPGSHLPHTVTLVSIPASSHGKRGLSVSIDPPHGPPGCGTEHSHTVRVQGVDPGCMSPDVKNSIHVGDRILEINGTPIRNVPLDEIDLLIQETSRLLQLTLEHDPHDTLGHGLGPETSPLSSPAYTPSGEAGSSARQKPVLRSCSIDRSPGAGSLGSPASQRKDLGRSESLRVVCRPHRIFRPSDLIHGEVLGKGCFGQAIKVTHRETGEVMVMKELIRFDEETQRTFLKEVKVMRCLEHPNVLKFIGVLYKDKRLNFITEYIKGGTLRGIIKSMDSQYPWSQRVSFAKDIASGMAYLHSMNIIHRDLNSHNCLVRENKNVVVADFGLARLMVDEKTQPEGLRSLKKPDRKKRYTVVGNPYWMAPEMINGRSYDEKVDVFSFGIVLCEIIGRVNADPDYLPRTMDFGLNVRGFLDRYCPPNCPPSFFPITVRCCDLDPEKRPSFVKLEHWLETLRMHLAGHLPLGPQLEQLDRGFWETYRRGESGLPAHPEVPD

Compound | residual activity [1] [%] | residual activity [2] [%] | residual activity [3] [%] | residual activity [4] [%] | residual activity [5] [%] | residual activity [6] [%] | residual activity [7] [%] | residual activity [8] [%] | residual activity [9] [%] | residual activity [10] [%] | residual activity [11] [%] | residual activity [12] [%] | residual activity [13] [%] | residual activity [14] [%] | residual activity [15] [%] | residual activity [16] [%] | residual activity [17] [%] | residual activity [18] [%] | residual activity [19] [%] | residual activity [20] [%] | other results
O=C(NCc1ncc(C(F)(F)F)cc1Cl)c1ccc2c(c1)C1(CCS(=O)(=O)CC1)[C@H](C1CC1)N2S(=O)(=O)c1ccc(F)cc1 [BAY-784] | 100 | 84 | 68 | 100 | 100 | 100 | 97 | 94 | 100 | 100 | 100 | 80 | 79 | 92 | 100 | 100 | 100 | 99 | 100 | 94 | residual activity [21]: 100%; residual activity [22]: 91%; residual activity [23]: 94%; residual activity [24]: 100%; residual activity [25]: 100%; residual activity [26]: 100%; residual activity [27]: 100%; residual activity [28]: 95%; residual activity [29]: 77%; residual activity [30]: 88%; residual activity [31]: 90%; inhibition [32]: -6.19%; inhibition [33]: 9.65%; inhibition [34]: 1.03%
O=C(NCc1ncc(C(F)(F)F)cc1Cl)c1ccc2c(c1)C1(CCS(=O)(=O)CC1)[C@@H](C1CC1)N2S(=O)(=O)c1ccc(F)cc1 [BAY-786] | 100 | 90 | 1.9 | 97 | 100 | 100 | 96 | 100 | 97 | 100 | 100 | 70 | 93 | 67 | 85 | 91 | 100 | 100 | 79 | 83 | residual activity [21]: 95%; residual activity [22]: 92%; residual activity [23]: 97%; residual activity [24]: 69%; residual activity [25]: 74%; residual activity [26]: 100%; residual activity [27]: 30%; residual activity [28]: 93%; residual activity [29]: 96%; residual activity [30]: 99%; residual activity [31]: 80%; inhibition [32]: -2.74%; inhibition [33]: 16.9%; inhibition [34]: 3.76%
